Measured values as given in patent US9944600B2, “Piperidine derivatives for GPR119 agonist” (CHONG KUN DANG PHARMACEUTICAL CORP., priority 2012, dated 2018).

Columns and labels:
[1] = molecular target: T1, GPR 119 Receptor (Mus musculus, UniProt Q7TQP3); assay: Glucose tolerance test / whole blood glucose level change in disease model animal (DIO mouse); type: in vivo; conditions: daily
T1 construct: from tissue; host or cells: whole animal: male C57/6J Jms mice (normal) or diet induced obesity C57BL/6J mice
T1 sequence (Q7TQP3 1-335): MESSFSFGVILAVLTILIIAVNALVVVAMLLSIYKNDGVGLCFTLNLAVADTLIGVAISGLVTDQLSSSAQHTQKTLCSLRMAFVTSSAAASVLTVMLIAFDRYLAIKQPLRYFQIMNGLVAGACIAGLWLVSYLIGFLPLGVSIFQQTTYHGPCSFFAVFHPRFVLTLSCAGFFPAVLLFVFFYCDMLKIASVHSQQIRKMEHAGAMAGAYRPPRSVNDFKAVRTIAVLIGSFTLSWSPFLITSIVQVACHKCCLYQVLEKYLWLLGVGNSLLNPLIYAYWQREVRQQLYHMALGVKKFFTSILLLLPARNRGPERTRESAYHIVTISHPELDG
Description: Male C57BL/6J mice of 6.5 weeks of age were taken with high fat diet (60% kcal, Research Diets) for 12 weeks. The obtained male diet induced obesity (DIO) C57BL/6J mice of 18.5 weeks of age were fasted for 16 hours before the start of glucose tolerance test. The experimental animal groups consist of: • A. a vehicle group (10% EtOH, 20% HPBCD in D.W.), • B. a positive control group administered with Sitagliptin (30 mg/kg), and • C. test groups administered with compound 770 and Compound 1028 (10, 30 mgkg and combination administration with sitagliptin 30 mg/kg).
Each test compounds was administered at the same time of every day for 2 weeks. Before the compound administration, whole blood glucose level was determined using a Glucometer (ACCU-CHEK, Roche). At 30 minutes after compound administration, whole blood glucose level was determined once again, and 20% glucose (2 g/kg/10 mL) was administered orally. Whole blood glucose level was determined at 20, 40, 60, 80, and 120 minutes after 20% glucose administration. Area under the curve (AUC) of whole blood glucose level was obtained using GraphPad Prism 5.0. The effect of glucose tolerance was adjudged with the corrected area under the curve (cAUC), on which the base value of glucose area under the curve was excluded.
Whole blood glucose level was measured at about 1 hour after test compound administration from caudal vein of mice using Glucometer. Whole blood glucose level was determined three times totally, that is, (1) at prior to the start of drug administration, (2) after 1 week from the start of 2-weeks drug administration, and (3) after the termination of 2-weeks drug administration. Each determination was started with 20% glucose administration, and then perfomed at 20, 40, 60, 80, and 120 minutes after 20% glucose administration.

[2] = molecular target: T1, GPR 119 Receptor; assay: Glucose tolerance test in normal mouse (animal test of activity for the GPR 119 receptor); type: in vivo; conditions: normal male C57/6J Jms mice, oral glucose 2 g/kg, whole blood glucose AUC
Description: Male C57/6J Jms mice of 6-7 weeks of age were fasted for 16 hours before the start of glucose tolerance test. The experimental animal groups consist of: • A. a vehicle group (10% EtOH, 20% HPBCD in saline), • B. a positive control group administered with MBX-2982 (10 mg/kg), and • C. test groups administered with compound 516, 581, 586, 612, 640, 644 or etc. (10 mg/kg).
Before compound administration, that is, at 0 hour, whole blood glucose level was determined using a Glucometer (ACCU-CHEK, Roche). At 30 minutes after compound administration, whole blood glucose level was determined once again, and 20% glucose (2 g/kg/10 mL) was administered orally. Whole blood glucose level was determined at 20, 40, 60, 80, and 120 minutes after 20% glucose administration. Area under the curve (AUC) of whole blood glucose level was obtained using GraphPad Prism 5.0. The effect of glucose tolerance was adjudged with the corrected area under the curve (cAUC), on which the base value of glucose area under the curve was excluded.

[3] = molecular target: T2, human GPR119 receptor (Homo sapiens, UniProt Q8TDV5); assay: Activity test for human GPR119 receptor (GeneBLAzer T-Rex GPR 119 CHO-K1 DA cells, fluorescence reporter); type: cell-based; conditions: human GPR119 CHO-K1 reporter cells, 5 hours treatment, ratio to vehicle control well, read-out: % Activation
T2 construct: host or cells: GeneBLAzer T-Rex GPR 119 CHO-K1 DA cells (CHO-K1)
T2 sequence (Q8TDV5 1-335): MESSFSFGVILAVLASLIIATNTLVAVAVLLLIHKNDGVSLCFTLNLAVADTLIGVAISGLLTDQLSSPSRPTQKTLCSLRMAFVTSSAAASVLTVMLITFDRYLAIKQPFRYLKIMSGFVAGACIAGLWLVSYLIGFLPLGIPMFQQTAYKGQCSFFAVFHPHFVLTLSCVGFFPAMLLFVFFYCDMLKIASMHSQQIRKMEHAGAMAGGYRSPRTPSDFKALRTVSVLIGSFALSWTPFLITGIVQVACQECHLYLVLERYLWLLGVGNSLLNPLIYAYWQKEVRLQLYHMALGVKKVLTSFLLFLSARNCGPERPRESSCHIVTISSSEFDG
Description: As a human GPR119 receptor expression cell for this test, the cell line “GeneBLAzer™ T-Rex GPR 119 CHO-K1 DA cells” that is commercially available from Invitrogen, was used. The cell was incubated in the DMEM media containing 1% dialyzed fetal bovine serum etc. The cell incubator was kept at constant temperature and constant humidity of 37° C., 5% CO2.
The human GPR119 receptor expressing cell was used to this test. Each of test compounds was added to be final concentrations of 0.1, 1, 10 μM in 96 well and tested in duplicate. A fixed amount of cell was added to each well of 96 well separately, and then treated with the test compound for 5 hours. After treatment of color development agent for 2 hours, the fluorescence value was determined with plate reader. To the luminous wavelength of control well, which was not treated with the agonist sample, but in which only a vehicle (i.e., cell) was contained, the ratio of the luminous wavelength of test well, which was treated with the agonist sample, was calculated, and then converted to obtain % value.
All the results were expressed as mean±SD, and each test groups and the control group were compared using student's t-test to adjudge the effects of each test groups.

[4] = 30 mpk alone, 0 week (prior to start of administration)

activity at 0.1 µM ([3]; test compound conc. 0.1 μM) [%]	activity at 1 µM ([3]; test compound conc. 1 μM) [%]	activity at 10 µM ([3]; test compound conc. 10 μM) [%]	Compound	Whole Blood Glucose Level Change (%) by drug administration ([1]; 10 mpk alone, 0 week (prior to start of administration)) [%]	Whole Blood Glucose Level Change (%) by drug administration ([1]; 10 mpk alone, 1 week) [%]	Whole Blood Glucose Level Change (%) by drug administration ([1]; 10 mpk alone, 2 weeks) [%]	Whole Blood Glucose Level Change (%) by drug administration [1, 4] [%]	Whole Blood Glucose Level Change (%) by drug administration ([1]; 30 mpk alone, 1 week) [%]	Whole Blood Glucose Level Change (%) by drug administration ([1]; 30 mpk alone, 2 weeks) [%]	Decrease % of AUC at 10 mg/kg [2] [%]
228	280	310	CC(C)(F)CN1CCC(COc2ccc(-c3ccc(C(=O)N4CCC[C@H]4C(N)=O)c(F)c3)nc2)CC1 [Compound 770, (S)-1-(2-fluoro-4-(5-((1-(2-fluoro-2-methylpropyl)piperidin-4-yl)methoxy)pyridine-2-yl)benzoyl)pyrrolidine-2-carboxamide]	0	22.9	24.0	0	25.5	26.6	47
–	–	–	N[C@@H](CC(=O)N1CCn2c(nnc2C(F)(F)F)C1)Cc1cc(F)c(F)cc1F [Sitagliptin, reference compound]	–	–	–	0	25.5	31.7	–
